Experimental data: paper PMC10652874, “Investigation into the mechanism of action of the antimicrobial peptide epilancin 15X” (Frontiers in Microbiology, 2023)

Test system: S. carnosus TM300
Test: RNAseq differential gene expression
Assay type: cell-based, Staphylococcus carnosus
Procedure: For the RNAseq experiments, epilancin was added at sub-lethal concentration (0.5x MIC) to S. carnosus TM300 once the cultures reached an OD600 of 0.6. RNA was extracted 40 min after the treatment, using a FastRNA Pro Blue kit (MP Biomedicals). Both treated and parallel untreated samples were collected at the same time. Sequencing was performed at the Carver Biotechnology Center (UIUC). For RNAseq analysis, gene counts were read in to R (v3.1.1; [Team, 2014]), and 14/2441 genes were removed because they had fewer than 32 total counts across the six samples. edgeR’s (v3.6.7) TMM normalization ([Robinson and Oshlack, 2010]) plus negative binomial generalized log-linear model ([McCarthy et al., 2012]) was used to test for differential expression between treated and untreated groups, while accounting for pairing of U and T replicates from three different cultures. p-values were adjusted using the false discovery rate method ([Benjamini and Hochberg, 1995]).

[1] = putative ABC transporter ATP-binding protein
[2] = putative short chain dehydrogenase
[3] = putative transcriptional regulator

Substance: Epilancin 15X
- fold_change mobA (molybdopterin-guanine dinucleotide biosynthesis protein MobA): 2.6
- fold_change mutT (mutT/nudix family protein): 5.15
- fold_change int (phage integrase): 3.38
- fold_change pstB (phosphate transporter ATP-binding protein): 3.4
- fold_change deoB (phosphopentomutase, gene drm): 2.75
- fold_change dltD (poly D-alanine transfer protein): 2.08
- fold_change proP (proline/betaine transporter): 2.73
- fold_change Sca_0040 (putative 2-keto-4-pentenoate hydratase): 2.87
- fold_change Sca_1843 (putative 3-methyladenine DNA glycosylase): 2.27
- fold_change Sca_0458 [1]: 3.16
- fold_change Sca_2242 [1]: 2.55
- fold_change Sca_1033 (putative ABC transporter permease): 3.26
- fold_change Sca_0699 (putative ABC-type cobalt transport system ATPase): 2.62
- fold_change clpL (putative ATP-dependent Clp proteinase chain clpL): 7.83
- fold_change Sca_0398 (putative ATP-dependent helicase): 3.32
- fold_change Sca_0642 (putative ComK family protein): 2.73
- fold_change Sca_2395 (putative CorA-like Mg2+ transporter protein): 2.01
- fold_change Sca_1264 (putative DNA repair protein RadC, gene radC): 12.09
- fold_change sufB (putative FeS assembly protein SufB): 3.43
- fold_change Sca_0476 (putative HNH family endonuclease, phage associated): 4.35
- fold_change Sca_0479 (putative IstB-like ATP-binding protein, phage associated): 3.51
- fold_change sdaB (putative L-serine dehydratase subunit beta): 3.71
- fold_change sdaA (putative L-serine dehydratase, iron-sulfur-dependent subunit alpha): 2.95
- fold_change Sca_0539 (putative MerR family transcriptional regulator): 2.12
- fold_change Sca_0093 (putative N-acetyltransferase): 2.6
- fold_change Sca_1976 (putative NAD(P)H-flavin oxidoreductase): 5.31
- fold_change Sca_0831 (putative NADH-flavin reductase): 4.42
- fold_change Sca_1692 (putative NADP-dependent oxidoreductase): 5.86
- fold_change Sca_1977 (putative NADPH oxidoreductase): 5.07
- fold_change Sca_2123 (putative Na(+)/H(+) antiporter subunit G): 2.16
- fold_change Sca_2138 (putative PTS system, IIBC components): 2.3
- fold_change Sca_2137 (putative RpiR family transcriptional regulator): 2.96
- fold_change Sca_2214 (putative Tat-translocated protein): 3.14
- fold_change adc (putative acetoacetate decarboxylase): 2.51
- fold_change fadE (putative acid-CoA ligase): 2.21
- fold_change adhC (putative alcohol dehydrogenase): 2.53
- fold_change Sca_2013 (putative alcohol dehydrogenase, zinc-containing): 3.05
- fold_change aldH (putative aldehyde dehydrogenase): 0.49
- fold_change Sca_1625 (putative aldehyde dehydrogenase family protein): 2.65
- fold_change Sca_1685 (putative alkaline shock protein): 4.53
- fold_change Sca_1958 (putative alpha-acetolactate decarboxylase): 4.48
- fold_change Sca_0638 (putative alpha/beta fold family hydrolase): 2.8
- fold_change Sca_0872 (putative alpha/beta hydrolase superfamily protein): 3.04
- fold_change Sca_0567 (putative amidohydrolase): 2.54
- fold_change Sca_0399 (putative amidophosphoribosyltransferase): 3.6
- fold_change Sca_2120 (putative amino acid transporter): 0.49
- fold_change Sca_2151 (putative antibiotic transport-associated protein): 2.04
- fold_change Sca_0467 (putative antirepressor, phage associated): 4.9
- fold_change brnQ (putative branched-chain amino acid carrier): 0.5
- fold_change katE/B (putative catalase): 5.7
- fold_change Sca_0538 (putative cation exporting ATPase): 5
- fold_change czrB (putative cation-efflux system membrane protein): 9.3
- fold_change Sca_0867 (putative cell wall-anchored protein): 2.34
- fold_change Sca_0698 (putative cobalt transport system permease): 2.09
- fold_change copA (putative copper-transporting P-type ATPase): 2.32
- fold_change Sca_0707 (putative cytochrome D ubiquinol oxidase subunit I): 2.66
- fold_change Sca_0708 (putative cytochrome D ubiquinol oxidase subunit II): 3.72
- fold_change dut (putative dUTP pyrophosphatase, phage associated): 3.34
- fold_change Sca_2298 (putative dioxygenase): 4.81
- fold_change Sca_0871 (putative effector domain of transcriptional regulator): 3.63
- fold_change Sca_0099 (putative esterase of the alpha-beta hydrolase superfamily): 2.92
- fold_change fmdA (putative formamidase): 5.66
- fold_change Sca_1468 (putative general stress protein): 2.39
- fold_change Sca_0390 (putative glycerate kinase): 2.11
- fold_change Sca_1327 (putative glycerophosphoryl diester phosphodiesterase): 2.21
- fold_change opuCB (putative glycine betaine/carnitine/choline transport system permease): 2.02
- fold_change Sca_0056 (putative glycosyl transferase): 2.07
- fold_change Sca_1969 (putative glyoxylase family protein): 4.21
- fold_change hrcA (putative heat-inducible transcriptional repressor): 3.08
- fold_change lrgA (putative holin-like protein LrgA): 3.61
- fold_change Sca_0480 (putative holliday junction resolvase, phage associated): 3.23
- fold_change Sca_2166 (putative indole-3-pyruvate decarboxylase): 2.06
- fold_change Sca_0081 (putative intracellular protease/amidase): 5.75
- fold_change Sca_1648 (putative mannose-6-phosphate isomerase): 0.5
- fold_change Sca_0366 (putative membrane-bound sulfatase): 2.62
- fold_change adaB (putative methylated DNA-protein cysteine methyltransferase): 2.26
- fold_change Sca_2129 (putative monovalent cation/H+ antiporter subunit A): 3.98
- fold_change Sca_2128 (putative monovalent cation/H+ antiporter subunit B): 2.49
- fold_change Sca_2127 (putative monovalent cation/H+ antiporter subunit C): 2.24
- fold_change Sca_2126 (putative monovalent cation/H+ antiporter subunit D): 2.35
- fold_change Sca_2125 (putative monovalent cation/H+ antiporter subunit E): 2.21
- fold_change Sca_2124 (putative monovalent cation/H+ antiporter subunit F): 2.43
- fold_change Sca_0449 (putative nitroreductase): 2.26
- fold_change mocA (putative oxidoreductase protein): 5.88
- fold_change Sca_0684 (putative peptidase): 2.13
- fold_change Sca_1042 (putative peptidase (peptidase family M20/M25/M40)): 0.49
- fold_change Sca_2130 (putative phage integrase family protein): 8.35
- fold_change pstA (putative phosphate ABC transporter permease): 3.6
- fold_change Sca_1034 (putative phosphate transport system substrate-binding protein): 3.27
- fold_change Sca_1030 (putative phosphate uptake regulator protein): 3.27
- fold_change Sca_0075 (putative phospholipase/carboxylesterase): 3.41
- fold_change Sca_0147 (putative purine regulatory protein): 2.18
- fold_change pdp (putative pyrimidine nucleoside phosphorylase): 2.55
- fold_change czrA (putative repressor protein): 8.56
- fold_change vraR (putative response regulator): 8.62
- fold_change Sca_0400 (putative ribosome-associated protein): 2.26
- fold_change csdB (putative selenocysteine lyase): 3.29
- fold_change Sca_1824 [2]: 2.61
- fold_change Sca_2218 [2]: 3.36
- fold_change Sca_2233 [2]: 2.35
- fold_change xerD (putative site-specific recombinase XerD): 2.53
- fold_change Sca_0225 (putative sugar phosphate isomerase): 3.01
- fold_change trxB (putative thioredoxine reductase): 2.17
- fold_change gltC (putative transcription activator of glutamate synthase operon): 2.32
- fold_change Sca_1970 (putative transcription regulator MarR family): 3.81
- fold_change Sca_2227 (putative transcriptional activator TenA): 2.88
- fold_change Sca_0070 [3]: 5.38
- fold_change Sca_2381 [3]: 3.42
- fold_change Sca_1791 (putative transmembrane protein): 8.45
- fold_change Sca_1822 (putative transport protein): 0.49
- fold_change Sca_1423 (putative two-component response regulator): 0.49
- fold_change norA (quinolone resistance protein NorA): 2.56
- fold_change spoVG (regulatory protein SpoVG): 2.18
- fold_change rnpA (ribonuclease P): 2.02
- fold_change prmA (ribosomal protein L11 methyltransferase, gene SCA_1200): 2.07
- fold_change Sca_0809 (secretory antigen SsaA): 2.03
- fold_change Sca_0615 (sodium:alanine symporter family protein): 3.14
- fold_change Sca_2363 (succinate-semialdehyde dehydrogenase (NADP+), gene gabD): 2.52
- fold_change trmFO (tRNA (uracil-5-)-methyltransferase Gid, gene gid): 2.02
- fold_change tdk (thymidine kinase): 0.49
- fold_change perR (transcription regulator Fur family): 2.27
- fold_change ctsR (transcription repressor of class III stress genes): 5.22
- fold_change Sca_0964 (transport system binding protein): 3.98
- fold_change sipB (type-1 signal peptidase 1B): 2.45
- fold_change sipA (type-I signal peptidase): 2.68
